Data as given in paper PMC8234803, “In Vitro Metabolism of Six C-Glycosidic Flavonoids from Passiflora incarnata L” (International Journal of Molecular Sciences, 2021).
“Also recorded” adds a separate entry of the source.

Key:
Caco-2 cell monolayer = assay: Caco-2 monolayer metabolism experiment, metabolites identified via UHPLC-DAD-MS(/MS); type: in vitro ADME, human; conditions: for Extent of metabolism (in words) / Phase II conjugates containing glucuronic acid or sulfates / Phase II metabolites with glucuronic acid or sulfates: 3 and 5 h; for Extent of phase I and II metabolism (in words): independent of incubation time and concentration
Protocol: To obtain information on the in vitro metabolism of the six tested C-glycosidic flavonoids in the intestine, experiments were carried out using the Caco-2 monolayer model (Figure 2). Metabolite profiles were characterized at two different concentrations (10 and 100 µM; n = 3) and after two different incubation times (3 or 5 h; n = 3) in order to determine the influence of concentration and time on the metabolism reactions that occurred. Furthermore, to analyze the distribution of the observed metabolites, samples were collected from the cell lysate and the apical and basolateral compartments. All samples of the metabolism experiments using the Caco-2 cell monolayer were analyzed using UHPLC-DAD-MS and UHPLC-DAD-MS/MS. Metabolites were identified by libraries that were prepared for each compound (Tables S1–S6). The O and IO libraries contained 67 metabolites (Tables S1 and S2), the S and IS libraries contained 106 metabolites (Tables S3 and S4), and the V and IV libraries contained 71 possible metabolites (Tables S5 and S6).
To form a confluent and differentiated monolayer, cells at passages 16–45 were seeded into the inserts of 12-well Transwell® plates at a density of 3.0 × 10^5 cells/cm^2. Afterwards, the culture medium was replaced every day, and the metabolism experiment was performed 21 days after seeding. The apical and basolateral compartments contained 0.5 and 1.5 mL of cell culture medium, respectively.
On day 21, the cell culture medium was removed from the apical and basolateral compartments, and the Caco-2 cell monolayer was washed two times with prewarmed HBSS. The Transwell® plates containing HBSS were incubated at 37 °C for 15 min to measure the transepithelial electrical resistance (TEER) value. The integrity of the cell monolayers was evaluated by TEER values between the apical and basolateral sides with the Evohm2 system (World Precision Instruments, Sarasota, FL, USA). The cell inserts were only used for the metabolism experiments if the resistance exceeded 350 Ω/cm^2. The six test substances were dissolved in DMSO to a stock solution of 20 mM. The HBSS was adjusted to pH 6.0 and 7.4 with 1 M HCl. Afterwards, the stock solutions were diluted to 10 or 100 µM in an appropriate volume of HBSS (pH 6.0) to obtain a DMSO concentration of <1%. The test solutions were added to the apical side (0.5 mL), while the basolateral side was filled with 1.5 mL of HBSS (pH 7.4). The Transwell® plates were incubated at 37 °C for 3 or 5 h, respectively. After this period, solutions from the apical and basolateral compartments were collected in separate tubes, washed twice with 500 µL of HBSS, and then collected again. The samples were lyophilized and stored at −20 °C until they were measured using UHPLC-DAD-MS. After the experiment, Transwell® inserts were apically (0.5 mL) and basolaterally (1.5 mL) filled with HBSS and warmed to 37 °C for 20 min. Then, the TEER values were measured to guarantee the integrity of the monolayer during the experiment. The experiment was performed in triplicate for each substance, concentration, and incubation time.
After the metabolism experiment, cell monolayers were washed twice with PBS and incubated with 200 µL of trypsin-EDTA for 10 min at 37 °C in an atmosphere of 5% CO2 and constant humidity in the incubator. The cells were removed from the well by pipetting up and down, and were collected in a tube. The well was washed twice with PBS (1 mL), and the wash solution was also collected in the corresponding tube. The mixture was centrifuged (1000× g rpm, 5 min), and the supernatant was discarded.

[1] = MTT assay under metabolic conditions (cell viability); type: cell-based, human; conditions: human, 5 h incubation, read-out: Viability of Caco-2 cells; for viability at 5 h, 10 µM: Caco-2, 10 µM in HBSS (pH 6.0); for viability at 5 h, 100 µM: Caco-2, 100 µM in HBSS (pH 6.0)
Protocol: (§1) All six substances were tested in five different dilutions in HBSS (pH 6.0). The determined viability values of O, IO, S, IS, V, and IV are listed in the Supplementary Materials (Figure S2).
(§2) Caco-2 cells in the logarithmic growth phase were seeded in 96-well plates at a density of 3 × 10^4 cells/well and incubated at 37 °C in an atmosphere of 5% CO2 and constant moisture in an incubator. After 24 h, the cell culture medium was removed, and 100 µL of HBSS solution (negative control), 0.5% DMSO in HBSS solution (solvent control), or flavonoid samples in HBSS solution (6 flavonoids at concentrations of 10, 25, 50, 75, and 100 µM) was applied in quintuplicate and incubated for 5 h. Afterwards, the HBSS solutions were removed and replaced with an MTT solution in DMEM (0.4 mg/mL) and incubated for another 3 h at 37 °C. Then, the MTT solution was discarded, and the cells were fixed with a 10% SDS solution in PBS and stored at room temperature in the dark. After 24 h, the absorbance was measured on a Tecan microplate reader (Tecan Trading AG, Switzerland) at 560 nm. The viability rate was calculated as % = A/A0 × 100, with A as the average absorbance value of the treatment and solvent control groups and A0 as the average absorbance value of the negative control group. The assay was performed three times in pentaplicate.
(§3) The human colon adenocarcinoma cell line Caco-2 was obtained from the ATCC (American Type Culture Collection, Manassas, VA, USA). The cell line was determined to be free of mycoplasma contamination by PCR and culture from GATC Biotech AG (Konstanz, Germany). The cells were cultured in DMEM supplemented with 10% (v/v) FBS, 1% (v/v) NEAA, and 1% (v/v) antibiotics (penicillin/streptomycin) in an atmosphere of 5% CO2 and 90% relative humidity at 37 °C. The culture medium was replaced every 3 days, and the cells were split 1:5 using trypsin-EDTA once 90% confluence was obtained.

Caco-2 cells = assay: as above; type: cell-based, human; conditions: 10, 25, 50, 75, 100 µM in HBSS (pH 6.0), 5 h incubation
Protocol: as §1, §2, §3

[2] = Stability testing in test buffer (HBSS pH 6.0) under assay conditions, HPLC-DAD; type: physicochemical; conditions: 10 µM in HBSS pH 6.0, 37 °C, 5% CO2
Protocol: To guarantee the stability of all test substances during the metabolism assay on Caco-2 cells, they were incubated in the test buffer under assay conditions. Test samples were collected each hour for 5 h and were measured via HPLC-DAD.
To ensure stability during the Caco-2 metabolism experiments, all test substances were dissolved in DMSO to a concentration of 20 mM and diluted to 10 µM in an appropriate volume of HBSS (pH 6.0), resulting in a DMSO concentration of less than 1%. The test solution (1 mL) was aliquoted into a 12-well Transwell® plate and incubated for 5 h in an atmosphere of 5% CO2 and 90% relative humidity at 37 °C. Test samples (100 µL) were collected after t = 0, 1, 2, 3, 4, and 5 h and measured via HPLC-DAD. The peak area of the test substance at time t = 0 h was defined as 100%, and all other peak areas were related to calculate the proportional stability. The stability was calculated as % = area/area0 × 100. Stability testing was performed on three independent days with freshly prepared solutions (n = 3).
The system consisted of the following: Elite LaChrom with an L2200 autosampler, L2130 pump, L2350 column oven, L2444 DAD, and EZChrom Elite 3.1.7 software (Hitachi, Tokyo, Japan); column: Kinetex® Biphenyl, 100 Å, 250-4.6 mm (5 µm, same material precolumn; Phenomenex, Torrance, CA, USA); injection volume 30 µL; oven temp.: 25 °C; autosampler temp.: 10 °C; detection wavelength: 340 nm; flow: 1.2 mL/min; A = H2O + 0.1% TFA, B = acetonitrile + 0.1% TFA; gradient: 0–2 min 10% B, 2–10 min 10% B → 100% B, 10–11 min 100% B → 10% B, 11–15 min 10% B.

[3] = initial concentration 10 µM, 3 h, apical compartment
[4] = initial concentration 10 µM, 5 h, apical compartment
[5] = initial concentration 100 µM, 3 h, apical compartment
[6] = initial concentration 100 µM, 3 h, basolateral compartment
[7] = initial concentration 100 µM, 5 h, apical compartment

Possible metabolite (phase II metabolite identified by MS/MS fragmentation and comparison with reference compound after enzymatic hydrolysis) (Caco-2 cell monolayer; glucuronidase/sulfatase cleavage, UHPLC-DAD-MS/MS) | Possible metabolite detected (Caco-2 cell monolayer; [6]) | Stability (content relative to t = 0 h) ([2]; after 3 h of incubation) | Stability (content relative to t = 0 h) ([2]; after 5 h incubation) [%] | Compound | Extent of metabolism (in words) (Caco-2 cell monolayer; 10 µM) | Metabolites of the aglycones (cleavage of the C–C glycosidic bond) (Caco-2 cell monolayer; 100 µM approach) | Extent of metabolism (in words) (Caco-2 cell monolayer; 100 µM) | Extent of phase I and II metabolism (in words) (Caco-2 cell monolayer) | Possible metabolite detected (Caco-2 cell monolayer; [3]) | Possible metabolite detected (Caco-2 cell monolayer; [4]) | Possible metabolite detected (Caco-2 cell monolayer; [5]) | Possible metabolite detected (Caco-2 cell monolayer; [7]) | viability at 5 h, 10 µM [1] [%] | viability at 5 h, 100 µM [1] [%] | Effect on the viability of Caco-2 cells (in words) (Caco-2 cells) | Phase II conjugates containing glucuronic acid or sulfates (Caco-2 cell monolayer; 10 µM) | Phase II metabolites with glucuronic acid or sulfates (Caco-2 cell monolayer; 100 µM)
Methoxy-luteolin-sulfate | Hydroxy-dimethoxy-isovitexin | 96% | 95 | O=c1cc(-c2ccc(O)cc2)oc2cc(O)c([C@@H]3O[C@H](CO)[C@@H](O)[C@H](O)[C@H]3O)c(O)c12 [IV, isovitexin] | broader ranges of phase I and II metabolites | metabolites of the corresponding aglycones apigenin and luteolin were also detected | extensive metabolism | highly metabolized in phase I and II reactions | Hydroxy-methoxy-isovitexin; also recorded: Hydroxy-apigenin-sulfate; also recorded: Hydroxy-methoxy-apigenin | Hydroxy-methoxy-isovitexin; also recorded: Hydroxy-dimethoxy-isovitexin; also recorded: Hydroxy-apigenin-sulfate | Hydroxy-apigenin-sulfate; also recorded: Hydroxy-dimethoxy-isovitexin; also recorded: Hydroxy-methoxy-apigenin; also recorded: Hydroxy-methoxy-isovitexin | Hydroxy-methoxy-isovitexin; also recorded: Hydroxy-apigenin-sulfate; also recorded: Hydroxy-dimethoxy-isovitexin; also recorded: Hydroxy-methoxy-apigenin | 92 | 82 | slight, concentration-dependent reductions |  | 
 | Hydroxy-methoxy-schaftoside | approximately 100% |  | schaftoside | very limited metabolism |  | a few hydroxylated and methoxylated derivatives | poorly metabolized in phase I and II reactions | Hydroxy-methoxy-schaftoside | Hydroxy-methoxy-schaftoside | Hydroxy-methoxy-schaftoside | Hydroxy-methoxy-schaftoside |  |  | no significant effects at any concentration | No phase II conjugates containing glucuronic acid or sulfates were detectable | lacked the presence of phase II metabolites with glucuronic acid or sulfates

Compound | Possible metabolite (phase II metabolite identified by MS/MS fragmentation and comparison with reference compound after enzymatic hydrolysis) (Caco-2 cell monolayer; glucuronidase/sulfatase cleavage, UHPLC-DAD-MS/MS) | Possible metabolite detected (Caco-2 cell monolayer; [6]) | Stability (content relative to t = 0 h) ([2]; after 3 h of incubation) | Stability (content relative to t = 0 h) ([2]; after 5 h incubation) [%] | Extent of metabolism (in words) (Caco-2 cell monolayer; 10 µM) | Metabolites of the aglycones (cleavage of the C–C glycosidic bond) (Caco-2 cell monolayer; 100 µM approach) | Extent of metabolism (in words) (Caco-2 cell monolayer; 100 µM) | Extent of phase I and II metabolism (in words) (Caco-2 cell monolayer) | Possible metabolite detected (Caco-2 cell monolayer; [3]) | Possible metabolite detected (Caco-2 cell monolayer; [4]) | Possible metabolite detected (Caco-2 cell monolayer; [5]) | Possible metabolite detected (Caco-2 cell monolayer; [7]) | viability at 5 h, 10 µM [1] [%] | viability at 5 h, 100 µM [1] [%] | Effect on the viability of Caco-2 cells (in words) (Caco-2 cells) | Phase II conjugates containing glucuronic acid or sulfates (Caco-2 cell monolayer; 10 µM) | Phase II metabolites with glucuronic acid or sulfates (Caco-2 cell monolayer; 100 µM)
O=c1cc(-c2ccc(O)cc2)oc2c([C@@H]3O[C@H](CO)[C@@H](O)[C@H](O)[C@H]3O)c(O)cc(O)c12 [V, vitexin] |  | Hydroxy-methoxy-vitexin | approximately 100% |  | very limited metabolism |  | a few hydroxylated and methoxylated derivatives | poorly metabolized in phase I and II reactions |  |  | Hydroxy-methoxy-vitexin | Hydroxy-vitexin | 92 | 83 | slight, concentration-dependent reductions | No phase II conjugates containing glucuronic acid or sulfates were detectable | lacked the presence of phase II metabolites with glucuronic acid or sulfates
